Test [1] has as its target T1, mTOR (Homo sapiens, UniProt P42345).
T1 construct: FLAG; made in house
Nature of the test: In Vitro mTOR Kinase Assay (Echo), Test (a)(ii). It is filed as biochemical. The following applies: table of enzyme assay Test (a)(ii); read-out: Test (a)(ii) IC50. The method in brief: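 Enzyme: HEK293-expressed, FLAG-purified mTOR C-terminal fragment (aa 1362-2549). Rxn 2 h RT with biotinylated peptide, stopped with EDTA 50 mM/BSA/Tris pH 7.4. Detection: T389 phospho-antibody AlphaScreen, 680 nm excitation. IC50.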

Test [2] has as its target T1, mTOR. In words: mTOR Kinase Assay (Echo). It is filed as biochemical.

By IC50 is commonly meant the concentration that gives 50% inhibition.

T1 sequence (P42345 1362-2549): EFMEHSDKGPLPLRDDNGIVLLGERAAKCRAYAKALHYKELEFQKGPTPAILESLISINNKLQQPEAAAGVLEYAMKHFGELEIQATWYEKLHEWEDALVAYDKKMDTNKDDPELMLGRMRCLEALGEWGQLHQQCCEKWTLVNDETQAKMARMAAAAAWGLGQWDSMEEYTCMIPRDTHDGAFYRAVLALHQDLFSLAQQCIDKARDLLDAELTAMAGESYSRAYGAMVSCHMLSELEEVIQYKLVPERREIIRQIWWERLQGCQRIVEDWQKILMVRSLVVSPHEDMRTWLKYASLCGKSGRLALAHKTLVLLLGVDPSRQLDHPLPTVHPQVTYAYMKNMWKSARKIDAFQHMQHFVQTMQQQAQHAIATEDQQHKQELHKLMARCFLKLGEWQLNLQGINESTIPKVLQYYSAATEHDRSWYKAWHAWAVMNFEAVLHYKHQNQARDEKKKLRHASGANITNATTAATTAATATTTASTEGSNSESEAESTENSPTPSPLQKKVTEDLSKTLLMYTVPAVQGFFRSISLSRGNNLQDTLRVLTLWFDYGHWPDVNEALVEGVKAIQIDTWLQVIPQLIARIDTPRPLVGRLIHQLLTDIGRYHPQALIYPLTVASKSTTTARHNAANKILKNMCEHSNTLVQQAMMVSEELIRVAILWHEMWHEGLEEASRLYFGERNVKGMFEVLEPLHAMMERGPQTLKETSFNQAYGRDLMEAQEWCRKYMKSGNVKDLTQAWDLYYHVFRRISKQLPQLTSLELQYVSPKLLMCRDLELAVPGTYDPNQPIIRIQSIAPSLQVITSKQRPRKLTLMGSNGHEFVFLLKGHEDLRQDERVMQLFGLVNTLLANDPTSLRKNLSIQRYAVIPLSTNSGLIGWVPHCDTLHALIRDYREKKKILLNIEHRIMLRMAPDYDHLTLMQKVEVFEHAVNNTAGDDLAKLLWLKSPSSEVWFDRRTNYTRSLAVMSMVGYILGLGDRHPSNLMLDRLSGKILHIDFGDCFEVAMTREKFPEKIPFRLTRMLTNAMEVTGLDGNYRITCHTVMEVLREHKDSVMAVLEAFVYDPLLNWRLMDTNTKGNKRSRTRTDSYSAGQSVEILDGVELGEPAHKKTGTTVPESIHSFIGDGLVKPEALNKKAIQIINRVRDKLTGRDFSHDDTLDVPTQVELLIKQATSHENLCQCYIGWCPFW

Turning to `O=C(Nc1ccc(-c2nc(N3CCOCC3)cc(C3(S(=O)(=O)C4CC4)CC3)n2)cc1)NC1CCC1` [Example 13c, 3-cyclobutyl-1-[4-[4-(1-cyclopropylsulfonylcyclopropyl)-6-morpholin-4-ylpyrimidin-2-yl]phenyl]urea], the values for the IC50 in test [1] and in test [2] were 1.73 nM and 2.4 nM, respectively. The matching figures for `C[C@H]1COCCN1c1cc(C2(S(=O)(=O)C(C)(C)C)CC2)nc(-c2ccc(NC(=O)NC3CCC3)cc2)n1` [Example 18a, 1-[4-[4-(1-tert-butylsulfonylcyclopropyl)-6-[(3S)-3-methylmorpholin-4-yl]pyrimidin-2-yl]phenyl]-3-cyclobutylurea]: 7.14 nM and 9.67 nM.

Consider `Cc1csc(S(=O)(=O)C2(c3cc(N4CCOC[C@@H]4C)nc(-c4ccc(NC(=O)NC(C)C)cc4)n3)CC2)n1` [Example 25d, 1-[4-[4-[(3S)-3-methylmorpholin-4-yl]-6-[1-[(4-methyl-1,3-thiazol-2-yl)sulfonyl]cyclopropyl]pyrimidin-2-yl]phenyl]-3-propan-2-ylurea], for which the figures for the IC50 in test [1] and in test [2] were 1.52 nM and 1.57 nM, respectively.

With `Cc1csc(S(=O)(=O)C2(c3cc(N4CCOC[C@@H]4C)nc(-c4ccc(NC(=O)NCCO)cc4)n3)CC2)n1` [Example 25g, 3-(2-hydroxyethyl)-1-[4-[4-[(3S)-3-methylmorpholin-4-yl]-6-[1-[(4-methyl-1,3-thiazol-2-yl)sulfonyl]cyclopropyl]pyrimidin-2-yl]phenyl]urea], the results for the IC50 in test [1] and in test [2] were 1.43 nM and 1.19 nM, respectively.

Consider `C[C@H]1COCCN1c1cc(C2(S(=O)(=O)c3ccc(Cl)cc3)CC2)nc(-c2ccc(NC(=O)NC3CC3)cc2)n1` [Example 27, 1-[4-[4-[1-(4-Chlorophenyl)sulfonylcyclopropyl]-6-[(3S)-3-methylmorpholin-4-yl]pyrimidin-2-yl]phenyl]-3-cyclopropylurea], for which the half-inhibitory concentration (IC50) in test [1] is 1.11 nM; in test [2], 1.44 nM. The matching figures for `CNC(=O)Nc1ccc(-c2nc(N3CCOC[C@@H]3C)cc(C3(S(=O)(=O)c4ccc(Cl)cc4)CC3)n2)cc1` [Example 27e, 1-[4-[4-[1-(4-chlorophenyl)sulfonylcyclopropyl]-6-[(3S)-3-methylmorpholin-4-yl]pyrimidin-2-yl]phenyl]-3-methylurea]: 0.351 nM and 0.719 nM. The matching figures for `CCNC(=O)Nc1ccc(-c2nc(N3CCOC[C@@H]3C)cc(C3(S(=O)(=O)c4ccc(Cl)cc4)CC3)n2)cc1` [Example 27f, 3-[4-[4-[1-(4-chlorophenyl)sulfonylcyclopropyl]-6-[(3S)-3-methylmorpholin-4-yl]pyrimidin-2-yl]phenyl]-1-ethylurea]: 0.997 nM and 0.959 nM. The matching figures for `C[C@H]1COCCN1c1cc(C2(S(=O)(=O)c3ccc(Cl)cc3)CC2)nc(-c2ccc(NC(=O)NCCN(C)C)cc2)n1` [Example 27g, 1-[4-[4-[1-(4-chlorophenyl)sulfonylcyclopropyl]-6-[(3S)-3-methylmorpholin-4-yl]pyrimidin-2-yl]phenyl]-3-(2-dimethylaminoethyl)urea]: 21.3 nM and 18.9 nM. As to `C[C@H]1COCCN1c1cc(C2(S(=O)(=O)c3ccc(Cl)cc3)CC2)nc(-c2ccc(NC(=O)NCCO)cc2)n1` [Example 27h, 1-[4-[4-[1-(4-chlorophenyl)sulfonylcyclopropyl]-6-[(3S)-3-methylmorpholin-4-yl]pyrimidin-2-yl]phenyl]-3-(2-hydroxyethyl)urea], the IC50 in test [1] came to 0.244 nM; in test [2], 0.0856 nM.

For `C[C@H]1COCCN1c1cc(C2(S(=O)(=O)c3ccccn3)CC2)nc(-c2ccc(NC(=O)NC3CC3)cc2)n1` [Example 28, 3-Cyclopropyl-1-[4-[4-[(3S)-3-methylmorpholin-4-yl]-6-(1-pyridin-2-ylsulfonylcyclopropyl)pyrimidin-2-yl]phenyl]urea], the IC50 in test [1] came out at 1.87 nM; in test [2], 0.816 nM. `C[C@H]1COCCN1c1cc(C2(S(=O)(=O)c3ccccn3)CC2)nc(-c2ccc(NC(=O)NC3(CO)CC3)cc2)n1` [Example 36cv, 3-[1-(hydroxymethyl)cyclopropyl]-1-[4-[4-[(3S)-3-methylmorpholin-4-yl]-6-(1-pyridin-2-ylsulfonylcyclopropyl)pyrimidin-2-yl]phenyl]urea] displayed an IC50 in test [2] of 259 nM.

On to `C[C@@H](CO)NC(=O)Nc1ccc(-c2nc(N3CCOC[C@@H]3C)cc(C3(S(=O)(=O)c4nccs4)CCC3)n2)cc1` [Example 98h, 3-[(2S)-1-hydroxypropan-2-yl]-1-[4-[4-[(3S)-3-methylmorpholin-4-yl]-6-[1-(1,3-thiazol-2-ylsulfonyl)cyclobutyl]pyrimidin-2-yl]phenyl]urea], for which the IC50 in test [1] came to 3.62 nM. Take `C[C@H]1COCCN1c1cc(C2(S(=O)(=O)c3nccs3)CCC2)nc(-c2ccc(NC(=O)NCc3ncc[nH]3)cc2)n1` [Example 98i, 3-(1H-imidazol-2-ylmethyl)-1-[4-[4-[(3S)-3-methylmorpholin-4-yl]-6-[1-(1,3-thiazol-2-ylsulfonyl)cyclobutyl]pyrimidin-2-yl]phenyl]urea]: the IC50 in test [1] is 28.5 nM. Still for that read-out and setting: as for `C[C@H]1COCCN1c1cc(C2(S(=O)(=O)c3nccs3)CCC2)nc(-c2ccc(NC(=O)NCCCO)cc2)n1` [Example 98j, 3-(3-hydroxypropyl)-1-[4-[4-[(3S)-3-methylmorpholin-4-yl]-6-[1-(1,3-thiazol-2-ylsulfonyl)cyclobutyl]pyrimidin-2-yl]phenyl]urea], the figure is 3.74 nM; as for `C[C@H]1COCCN1c1cc(C2(S(=O)(=O)c3nccs3)CCC2)nc(-c2ccc(NC(=O)NCCO)cc2)n1` [Example 98k, 3-(2-hydroxyethyl)-1-[4-[4-[(3S)-3-methylmorpholin-4-yl]-6-[1-(1,3-thiazol-2-ylsulfonyl)cyclobutyl]pyrimidin-2-yl]phenyl]urea], 2.46 nM. Turning to `C[C@H](CO)NC(=O)Nc1ccc(-c2nc(N3CCOC[C@@H]3C)cc(C3(S(=O)(=O)c4nccs4)CCC3)n2)cc1` [Example 98l, 3-[(2R)-1-hydroxypropan-2-yl]-1-[4-[4-[(3S)-3-methylmorpholin-4-yl]-6-[1-(1,3-thiazol-2-ylsulfonyl)cyclobutyl]pyrimidin-2-yl]phenyl]urea], the IC50 in test [1] is 7.89 nM. Regarding `CNC(=S)Nc1ccc(-c2nc(N3CCOC[C@@H]3C)cc(C3(S(=O)(=O)CCCO)CCC3)n2)cc1` [Example 99a, 1-[4-[4-[1-(3-hydroxypropylsulfonyl)cyclobutyl]-6-[(3S)-3-methylmorpholin-4-yl]pyrimidin-2-yl]phenyl]-3-methylthiourea], the IC50 in test [1] is 43.8 nM.

Turning to `C[C@H]1COCCN1c1cc(C2(S(=O)(=O)CCCO)CCC2)nc(-c2ccc(NC(=S)NC3CC3)cc2)n1` [Example 99b, 3-cyclopropyl-1-[4-[4-[1-(3-hydroxypropylsulfonyl)cyclobutyl]-6-[(3S)-3-methylmorpholin-4-yl]pyrimidin-2-yl]phenyl]thiourea], in test [1], the IC50 is 31.6 nM. The same measure, in the same setting: as for `C[C@H]1COCCN1c1cc(C2(S(=O)(=O)CCCO)CCC2)nc(-c2ccc(NC(=S)NCc3ncc[nH]3)cc2)n1` [Example 99c, 1-[4-[4-[1-(3-hydroxypropylsulfonyl)cyclobutyl]-6-[(3S)-3-methylmorpholin-4-yl]pyrimidin-2-yl]phenyl]-3-(1H-imidazol-2-ylmethyl)thiourea], the figure is 239 nM; as for `C[C@H]1COCCN1c1cc(C2(S(=O)(=O)CCCO)CCC2)nc(-c2ccc(NC(=S)NC(C)(C)CO)cc2)n1` [Example 99d, 3-(1-hydroxy-2-methylpropan-2-yl)-1-[4-[4-[1-(3-hydroxypropylsulfonyl)cyclobutyl]-6-[(3S)-3-methylmorpholin-4-yl]pyrimidin-2-yl]phenyl]thiourea], 219 nM. Same read-out and setting: as for `CCNC(=S)Nc1ccc(-c2nc(N3CCOC[C@@H]3C)cc(C3(S(=O)(=O)CCCO)CCC3)n2)cc1` [Example 99e, 1-ethyl-3-[4-[4-[1-(3-hydroxypropylsulfonyl)cyclobutyl]-6-[(3S)-3-methylmorpholin-4-yl]pyrimidin-2-yl]phenyl]thiourea], the figure is 31.7 nM. The same measure, in the same setting: as for `C[C@H]1COCCN1c1cc(C2(S(=O)(=O)CCCO)CCC2)nc(-c2ccc(NC(=S)NCCO)cc2)n1` [Example 99f, 3-(2-hydroxyethyl)-1-[4-[4-[1-(3-hydroxypropylsulfonyl)cyclobutyl]-6-[(3S)-3-methylmorpholin-4-yl]pyrimidin-2-yl]phenyl]thiourea], the figure is 5.89 nM; as for `C[C@H]1COCCN1c1cc(C2(S(=O)(=O)CCCO)CCC2)nc(-c2ccc(NC(=S)NCC(F)F)cc2)n1` [Example 99g, 3-(2,2-difluoroethyl)-1-[4-[4-[1-(3-hydroxypropylsulfonyl)cyclobutyl]-6-[(3S)-3-methylmorpholin-4-yl]pyrimidin-2-yl]phenyl]thiourea], 15.2 nM.

Consider `CCCNC(=S)Nc1ccc(-c2nc(N3CCOC[C@@H]3C)cc(C3(S(=O)(=O)CCCO)CCC3)n2)cc1` [Example 99h, 3-[4-[4-[1-(3-hydroxypropylsulfonyl)cyclobutyl]-6-[(3S)-3-methylmorpholin-4-yl]pyrimidin-2-yl]phenyl]-1-propylthiourea], for which, in test [1], the half-maximal inhibitory concentration (IC50) worked out at 78.2 nM. Same read-out and setting: the figure for `C[C@H]1COCCN1c1cc(C2(S(=O)(=O)CCCO)CCC2)nc(-c2ccc(NC(=S)NCCCO)cc2)n1` [Example 99i, 3-(3-hydroxypropyl)-1-[4-[4-[1-(3-hydroxypropylsulfonyl)cyclobutyl]-6-[(3S)-3-methylmorpholin-4-yl]pyrimidin-2-yl]phenyl]thiourea] is 59.4 nM; for `C[C@H]1COCCN1c1cc(C2(S(=O)(=O)CCCO)CC2)nc(-c2ccc(NC(=S)NCC(F)F)cc2)n1` [Example 99j, 3-(2,2-difluoroethyl)-1-[4-[4-[1-(3-hydroxypropylsulfonyl)cyclopropyl]-6-[(3S)-3-methylmorpholin-4-yl]pyrimidin-2-yl]phenyl]thiourea] it is 12.4 nM.

Source of the values: patent publication US20090018134A1, “Compounds - 945” (AstraZeneca AB, priority 2007, published 2009).
